# Legend:
# [1] = test system: human platelets; assay: collagen-evoked aggregation of washed human platelets; assay type: cell-based
# Method: Venous blood was obtained from healthy human subjects who had not taken NSAID's for at least two weeks. Blood was drawn into plastic syringes containing ACD. […] The platelet rich plasma was transferred into fresh plastic tubes and centrifuged at 400×g for 5 min. […] A platelet count was made, which determined the volume of platelet suspension needed to make up 350×10^6 cells for each measurement. The aliquot was diluted with medium to make 0.5 ml/assay/cuvette. Appropriate calibration of the aggregometer (PAP-4C) for 0% and 100% transmission was carried out through the use of a sample of platelet suspension and cell-free medium (37).
# 0.5 ml of platelet suspension was added to siliconized glass tubes (four at a time) and heated with magnetic stirring to 37° for 1 min in a platelet aggregometer (PAP-4C). Either vehicle alone (ethanol, 1 μl) or hepoxilin analog was then added, followed two min later by agonist (collagen: 2 μg; PGH2: 100 ng/0.5 ml; U46619: 10 ng/0.5 ml or I-BOP: 2 ng/0.5 ml). The response was recorded for the next 5 min. In experiments where analysis of TxB2 and HHT were to be made by HPLC, the platelet suspension at the end of the experiment was diluted with ethyl acetate, 100 ng of prostaglandin B1 was added as internal standard, and the mixture was acidified to pH 3 with 0.1 N HCl. After centrifugation, the organic layer was separated, washed twice with water to neutrality, and evaporated to dryness. Half of the sample was taken and was resuspended in 1 ml ethyl acetate containing 20 μg ADAM reagent, and was left in the dark for 2 h (38). The solvent was then evaporated and the residue was acetylated with a solution of pyridine/acetic anhydride (3/1, v/v) during 16 h at 23°. The reagents were evaporated to dryness and the residue was resuspended in acetonitrile/water for HPLC analysis. In experiments where the conversion of tritiated PGH2 was to be monitored, the procedure described above was repeated with tritiated PGH2 instead of unlabeled PGH2. After extraction of the sample as described above, the radiolabeled compounds were analyzed by TLC. Dose response curves for varying amounts of test compounds were generated and the data expressed as % inhibition of collagen-induced platelet aggregation. Each point was investigated 5 times and statistical analysis of the data was carried out using Macintosh Statview statistical software.
# [2] = biological target: T1, COX-1 (Ovis aries, UniProt P05979); assay: COX-1 activity, 14C-arachidonic acid conversion, TLC; assay type: biochemical; conditions: for COX-1 enzyme activity (% of control values, mean ± SD): n = 3
# T1 construct: purchased Cayman Chemicals
# T1 sequence (P05979 25-600): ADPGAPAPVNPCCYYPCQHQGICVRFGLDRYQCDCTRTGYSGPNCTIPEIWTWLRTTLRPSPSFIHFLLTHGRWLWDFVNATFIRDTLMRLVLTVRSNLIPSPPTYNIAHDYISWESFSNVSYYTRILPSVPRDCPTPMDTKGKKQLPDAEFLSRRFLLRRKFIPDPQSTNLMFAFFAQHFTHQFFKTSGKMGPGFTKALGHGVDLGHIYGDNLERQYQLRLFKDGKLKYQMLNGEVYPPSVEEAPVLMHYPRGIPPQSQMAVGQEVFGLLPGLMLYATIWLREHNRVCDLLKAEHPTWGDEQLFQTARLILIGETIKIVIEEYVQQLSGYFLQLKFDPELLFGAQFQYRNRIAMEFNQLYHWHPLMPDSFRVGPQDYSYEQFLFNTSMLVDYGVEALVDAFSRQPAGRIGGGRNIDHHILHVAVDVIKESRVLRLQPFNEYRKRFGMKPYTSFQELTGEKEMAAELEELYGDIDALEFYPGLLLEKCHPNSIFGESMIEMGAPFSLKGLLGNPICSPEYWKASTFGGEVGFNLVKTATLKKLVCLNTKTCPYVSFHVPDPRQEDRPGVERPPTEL
# Method: COX-1 and COX-2 enzyme preparations were purchased from Cayman Chemicals. Preliminary studies established that 40 U of COX-1 or COX-2 could convert about 70% of ^14C-arachidonic acid (spec. act. 55 mCi/mmol, Ontario Isotopes, Ontario, Canada; 100,000 cpm were diluted with 0.5 μg unlabeled arachidonic acid (Cayman Chemicals)/1 ml assay) into products in vitro. Different amounts of PBT-3 (10 μg and 20 μg) were added and the conversion of AA into products was assessed during a 10 min reaction in 1 ml phosphate buffer at 37°. After extraction, products were assessed by TLC (silica gel G, ethyl acetate/acetic acid, 99/1, v/v). After development, the TLC plates were scanned for radioactive products with a Berthold TLC radiochromatogram scanner and the radioactivity was quantified by scraping zones of silica gel, placing in scintillation vials, elution with 1 ml methanol and addition of scintillation medium. Radioactivity was determined by conventional counting in a beta scintillation counter.
smiles,measurement,setting,value
"CCCCC/C=C\CC1CC1[C@@H](O)/C=C\C/C=C\CCCC(=O)OC (stereo partly drawn) [PBT-3, 10(S)-hydroxy-11,12-cyclopropyl-eicosa-5Z,8Z,14Z-trienoic acid methyl ester]",IC50,"[1]; Homo sapiens, Platelet, washed human platelets, collagen 2 μg, read-out: IC50 for inhibition of collagen-evoked aggregation",~800 nM
same,inhibition of collagen-evoked aggregation,"[1]; single dose 1 μg added 2 min prior to collagen (2 μg), 350×10^6 washed human platelets in 0.5 ml","inhibited the collagen effect, with PBT-3 being the most potent"
same,"COX-1 enzyme activity (% of control values, mean ± SD)",[2]; PBT-3 3.00 μM,119.6 ± 14^NS % of control
same,"COX-1 enzyme activity (% of control values, mean ± SD)",[2]; PBT-3 30.0 μM,116.8 ± 11^NS % of control
same,"inhibition of COX-1, in words","[2]; relatively large amounts of PBT-3, about 3-4 log doses greater than required to inhibit the TP receptor","Neither COX-1, COX-2,12-LOX nor Plase A2 was inhibited"
